Measurements as given in patent US9889180B2, “Method of treating cancer” (Agency for Science, Technology and Research, priority 2012, dated 2018).

Columns and labels:
[1] = test system: IFN responsive genes (IFI16, IRF1, OAS1); test: Quantitative PCR of IFN responsive genes in DU145 prostatospheres; format: cell-based, human; conditions: DZNep with IFN-γ
Description: Total RNA was isolated by using Trizol (Invitrogen) and purified with the RNeasy Mini Kit (Qiagen). The microarray hybridization was performed using the Illumina Gene Expression Sentrix BeadChip HumanRef-8_V3, and data analysis was performed by GeneSpring software from Agilent Technologies as described previously. The analyzed gene sets by GeneSpring were next subjected to Ingenuity Pathway Analysis (IPA) for gene ontology (GO) analysis. Reverse transcription and quantitative PCR assays were performed using High Capacity cDNA Archive kit and KAPA SyBr Fast qPCR kit (KAPA biosystems). For quantification of mRNA levels, 18S level was used as an internal control. All reactions were analyzed in an Applied Biosystems PRISM 7500 Fast Real-Time PCR system in 96-well plate format. Prostatospheres were generated according to protocols known to the skilled person in the art. […] 7 days old prostatospheres formed were stained with 4 μg/ml p-Iodonitrotetrazolium Violet (INT) overnight and were counted and analyzed using a GelCount™ automatic plate scanner (Oxford Optronics) and GelCount Version 0.025.1 software (Oxford Optronics). […]

DU145 xenograft tumor = DU145 xenograft tumor growth in male athymic nude mice; format: in vivo; conditions: IFN-γ 1×10^7 IU/kg i.p. daily, DZNep 1 mg/kg s.c. every alternating day, 38 days
Description: For in vivo evaluation of DZNep and IFN-γ treatment, the experiments were conducted in compliance with animal protocol approved by the ASTAR-Biopolis Institutional Animal Care and Use Committee (IACUC) of Singapore. DU145 cells were subcutaneously injected into 6-8 week male nude mice at 5×10^6 cells, followed by treatment with vehicle, IFN-γ (1×10^7 IU/kg) alone, DZNep (1 mg/kg) alone or combined DZNep (1 mg/kg) with IFN-γ (1×10^7IU/kg). IFN-γ was administered by intraperitoneal injection daily and DZNep by subcutaneous injection on every alternating day over a duration of 38 days after average tumor size reached around 150 mm^3. Tumors were measured by vernier calliper at least twice per week and tumors volume was calculated with formula: V=W*W*L/2. Each xenograft treatment arm comprised of 5-8 mice. Differences among groups and treatments were determined by ANOVA followed by t tests. (***p<0.001, n.s=not significant) Error bars represent means±s.e.m

EZH2/PRC2 and H3K27me3 = target: T1, EZH2/PRC2 and H3K27me3 (Homo sapiens, UniProt Q15910); test: Western blot of PRC2 proteins and H3K27me3 in DU145 cells; format: cell-based; conditions: DZNep
T1 construct: endogenous in cells; host or cells: DU145 (named by the earlier reading of the assay)
Description: Western Blotting was performed as described previously. Briefly, Cells were scraped, collected, and lysed in RIPA buffer. To release histones from chromatin, cell lysates were further sonicated for 15 sec using a XL2000 Microson Ultrasonic Processor (Misonix). Equal amounts of protein (30 μg) were separated on SDS-polyacrylamide gels and transferred to PVDF membranes. The blots were probed with antibodies against EED (07-368), SUZ12 (07-379), trimethylated H3-K27 (07-449), Acetyl-Histone H3 (06-599), which were purchased from Upstate Biotechnology. IFNGR1 (GIR-94) and anti-IFI16 (1G7) were purchased from Santa Cruz. EZH2 phospho S21 (00388) was purchased from Bethyl Laboratories. EZH2 (AC22), P110α PI3K, p-AKT (T308), p-AKT (S473), pSTAT1Y701, total STAT1, Histone H3 (3H1), Beclin-1 and cleaved PARP were purchased from Cell Signaling. Myc and Actin were purchased from Roche Applied Science and Sigma-Aldrich, respectively.

LNCaP cells = test: Cell proliferation assay (CellTiter-Glo) in LNCaP cells; format: cell-based, human; conditions: siRNA knockdown combined with IFN-γ treatment
Description: The optimal cell seeding was determined empirically for all cell lines by examining the growth of a wide range of seeding densities in a 96-well format to identify conditions that permitted proliferation for 6 days. Cells were then plated at the optimal seeding density 24 h before siRNA or drug treatment in triplicate. Plates were incubated for 6 days at 37° C. in 5% CO2. Cells were then lysed with CellTiter-Glo (CTG) (Promega) and chemiluminescent signal was detected with a microplate reader (TECAN). In addition, an untreated plate of cells was harvested at the time of drug or siRNA addition (T0) to quantify the starting number of cells. CTG values obtained after the 6 day treatment were expressed as percentages of the T0 value and plotted against time of treatment. Cells received 1-5 μM of DZNep, 25 ng/mL of IFN-γ and 0.1-2.5 μM of GSK343 unless stated otherwise for 72-96 h.

[2] = test system: IFN responsive genes (MX1, IRF1, IFI16); test: qRT-PCR of IFN responsive genes in PC3 cells; format: cell-based, human; conditions: in response to IFN-γ stimulation
Description: Target-specific siRNA and non-targeting control siRNA were purchased from 1st Base Singapore and Integrated DNA technologies (IDT) with the following target sequences respectively: EZH2 siRNA: 5′-GACUCUGAAUGCAGUUGCU-3′ (SEQ ID NO: 1); MYC siRNA: 5′-[…]-3′ (SEQ ID NO:2). All siRNA were designed by 1st Base Singapore and IDT respectively. For transfection, 30 nM siRNAs were used to transfect cells. 48 h after transfection cell pellets were collected and subjected indicated assays.
Total RNA was isolated by using Trizol (Invitrogen) and purified with the RNeasy Mini Kit (Qiagen). The microarray hybridization was performed using the Illumina Gene Expression Sentrix BeadChip HumanRef-8_V3, and data analysis was performed by GeneSpring software from Agilent Technologies as described previously. The analyzed gene sets by GeneSpring were next subjected to Ingenuity Pathway Analysis (IPA) for gene ontology (GO) analysis. Reverse transcription and quantitative PCR assays were performed using High Capacity cDNA Archive kit and KAPA SyBr Fast qPCR kit (KAPA biosystems). For quantification of mRNA levels, 18S level was used as an internal control. All reactions were analyzed in an Applied Biosystems PRISM 7500 Fast Real-Time PCR system in 96-well plate format.

T1 sequence (Q15910 whole entry): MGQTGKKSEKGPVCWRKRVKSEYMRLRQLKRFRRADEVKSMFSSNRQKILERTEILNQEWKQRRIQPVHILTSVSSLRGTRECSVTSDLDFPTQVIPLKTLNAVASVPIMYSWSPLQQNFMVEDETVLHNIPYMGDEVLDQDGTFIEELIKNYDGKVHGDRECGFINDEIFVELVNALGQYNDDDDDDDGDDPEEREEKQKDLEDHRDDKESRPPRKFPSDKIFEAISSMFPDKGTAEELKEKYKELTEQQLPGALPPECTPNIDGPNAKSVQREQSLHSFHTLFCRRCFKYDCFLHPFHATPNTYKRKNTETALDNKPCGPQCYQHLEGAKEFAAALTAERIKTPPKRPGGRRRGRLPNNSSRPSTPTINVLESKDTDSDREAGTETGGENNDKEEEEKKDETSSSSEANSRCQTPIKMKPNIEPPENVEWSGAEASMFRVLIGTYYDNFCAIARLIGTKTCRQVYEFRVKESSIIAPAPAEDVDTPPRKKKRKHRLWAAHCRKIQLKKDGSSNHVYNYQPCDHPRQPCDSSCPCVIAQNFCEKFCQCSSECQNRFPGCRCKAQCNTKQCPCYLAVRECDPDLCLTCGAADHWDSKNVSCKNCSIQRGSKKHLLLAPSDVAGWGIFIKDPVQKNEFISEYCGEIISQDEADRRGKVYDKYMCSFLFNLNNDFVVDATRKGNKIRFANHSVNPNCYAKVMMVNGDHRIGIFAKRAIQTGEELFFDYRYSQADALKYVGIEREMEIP
T1 sequence (O75530 whole entry partner): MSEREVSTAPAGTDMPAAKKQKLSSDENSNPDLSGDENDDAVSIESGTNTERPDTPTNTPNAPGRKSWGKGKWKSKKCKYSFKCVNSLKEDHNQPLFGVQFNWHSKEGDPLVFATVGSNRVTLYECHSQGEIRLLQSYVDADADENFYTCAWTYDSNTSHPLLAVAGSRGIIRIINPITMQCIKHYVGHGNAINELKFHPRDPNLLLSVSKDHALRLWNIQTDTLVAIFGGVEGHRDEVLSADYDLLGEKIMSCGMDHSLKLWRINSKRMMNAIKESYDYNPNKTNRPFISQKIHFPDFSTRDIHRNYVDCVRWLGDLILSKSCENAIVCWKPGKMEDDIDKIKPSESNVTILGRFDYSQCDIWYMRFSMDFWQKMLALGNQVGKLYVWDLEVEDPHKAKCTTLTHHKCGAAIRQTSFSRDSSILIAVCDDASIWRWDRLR
T1 sequence (Q15022 whole entry partner): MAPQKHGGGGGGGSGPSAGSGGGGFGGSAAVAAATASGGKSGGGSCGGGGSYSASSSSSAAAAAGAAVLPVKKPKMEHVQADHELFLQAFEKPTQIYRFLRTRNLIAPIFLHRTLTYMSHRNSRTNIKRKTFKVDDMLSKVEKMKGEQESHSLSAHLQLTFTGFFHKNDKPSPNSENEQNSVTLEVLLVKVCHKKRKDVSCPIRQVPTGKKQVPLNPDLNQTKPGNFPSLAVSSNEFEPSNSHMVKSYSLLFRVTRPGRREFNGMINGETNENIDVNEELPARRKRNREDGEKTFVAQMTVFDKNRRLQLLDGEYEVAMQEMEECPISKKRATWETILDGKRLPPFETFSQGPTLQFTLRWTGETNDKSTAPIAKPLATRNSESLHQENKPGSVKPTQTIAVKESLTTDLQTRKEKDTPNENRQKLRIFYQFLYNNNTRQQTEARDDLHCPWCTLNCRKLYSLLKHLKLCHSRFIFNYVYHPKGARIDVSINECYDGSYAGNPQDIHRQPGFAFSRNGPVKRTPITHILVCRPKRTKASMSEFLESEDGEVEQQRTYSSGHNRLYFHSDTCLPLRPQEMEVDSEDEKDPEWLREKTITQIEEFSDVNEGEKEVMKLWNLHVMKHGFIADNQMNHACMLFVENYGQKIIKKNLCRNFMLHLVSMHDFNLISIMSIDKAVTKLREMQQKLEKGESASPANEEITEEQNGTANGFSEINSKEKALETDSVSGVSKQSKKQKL

Molecule | expression of IFN genes in prostatospheres [1] | xenograft tumor growth (DU145 xenograft tumor) | PRC2 protein levels (EZH2, EED, SUZ12) (EZH2/PRC2 and H3K27me3) | depletion of H3K27me3 (EZH2/PRC2 and H3K27me3) | cell growth after knockdown (LNCaP cells) | activation of IFN genes after knockdown [2]
Cl.Nc1nccc2c1ncn2[C@@H]1C=C(CO)[C@@H](O)[C@H]1O [DZNep, (−)-1-[(1R,4R,5S)-3-(Hydroxymethyl)-4,5-dihydroxy-2-cyclopenten-1-yl]4-aminoimidazo[4,5-c]pyridine hydrochloride] | enhanced response to IFN-γ stimulation | slowed down the tumor growth | depleted EZH2, as well as the other two PRC2 proteins EED and SUZ12 | much lower efficiency in depleting H3K27me3 | – | –
EZH2 knockdown: EZH2 siRNA: 5′-GACUCUGAAUGCAGUUGCU-3′ (SEQ ID NO: 1) (other strand not given here) | – | – | – | – | no such an effect was seen | robust activation of IFN genes
